pIC50: −log10 of the molar value. Calls of active or inactive are those of the source. The rule behind the calls is not given here.
Tests used:
C6 [1] = assay: Decrease in cyclin D1 expression in rat C6 cells at 50 uM after 0.5 to 24 hrs by Western blot analysis; format: functional, cell-based
C6 [2] = assay: Increase in phosphorylated p38 level in rat C6 cells after 0.5 to 3 hrs by Western blot analysis; format: cell-based
C6 [3] = assay: Antiproliferative activity against rat C6 cells after 96 hrs by MTT assay; format: functional, cell-based
[4] = biological target: T1, Mitogen-activated protein kinase; ERK1/ERK2 (Homo sapiens) (UniProt P27361+P28482); assay: Effect on ERK1/2 phosphorylation in human HT-29 cells at 10 to 50 uM after 0.5 to 24 hrs by Western blot analysis; format: cell-based
HT-29 [5] = assay: Induction of cell cycle arrest in human HT-29 cells assessed as decrease in cell level at S phase after 24 to 48 hrs by propidium iodide staining-based flow cytometric analysis; format: functional
HT-29 [6] = assay: Induction of cell cycle arrest in human HT-29 cells assessed as decrease in cell level at G2M phase after 24 to 48 hrs by propidium iodide staining-based flow cytometric analysis; format: functional
[7] = biological target: Mitogen-activated protein kinase 1 and 3 (ERK2 and ERK1) (Rattus norvegicus) (UniProt P63086+P21708); assay: Effect on ERK1/2 phosphorylation in rat C6 cells at 10 to 50 uM after 0.5 to 24 hrs by Western blot analysis; format: cell-based
C6 [8] = assay: Induction of cell cycle arrest in rat C6 cells assessed as accumulation at G0/G1 phase after 24 to 48 hrs by propidium iodide staining-based flow cytometric analysis; format: functional
[9] = Cytotoxicity against rat FaO cells assessed as cell viability at 100 uM after 24 hrs by LDH assay; format: cell-based
A549 [10] = assay: Induction of cell cycle arrest in human A549 cells assessed as decrease in cell level at G2M phase after 24 to 48 hrs by propidium iodide staining-based flow cytometric analysis; format: functional
C6 [11] = assay: Effect on CREB expression in rat C6 cells at 10 to 50 uM after 0.5 to 24 hrs by Western blot analysis; format: functional, cell-based
A549 [12] = assay: Decrease in cyclin D1 expression in human A549 cells at 50 uM after 3 to 24 hrs by Western blot analysis; format: functional, cell-based
HT-29 [13] = assay: Effect on c-myc expression in human HT-29 cells at 10 to 50 uM after 0.5 to 24 hrs by Western blot analysis; format: functional, cell-based
HT-29 [14] = assay: Inhibition of DNA synthesis in human HT-29 cells assessed as BrdU incorporation after 48 hrs by ELISA; format: functional, cell-based
C6 [15] = assay: Induction of cell cycle arrest in rat C6 cells assessed as decrease in cell level at S phase after 24 to 48 hrs by propidium iodide staining-based flow cytometric analysis; format: functional
[16] = biological target: T2, MAP kinase p38 (Homo sapiens) (UniProt O15264+Q15759+Q16539+P53778); assay: Increase in phosphorylated p38 level in human A549 cells at 10 to 50 uM after 24 hrs by Western blot analysis; format: cell-based
[17] = Cytotoxicity against rat FaO cells assessed as cell viability at 10 to 100 uM after 24 hrs by LDH assay; format: cell-based
A549 [18] = assay: Effect on c-myc expression in human A549 cells at 10 to 50 uM after 0.5 to 24 hrs by Western blot analysis; format: functional, cell-based
[19] = biological target: T2, MAP kinase p38 (Homo sapiens); assay: Increase in phosphorylated p38 level in human A549 cells after 0.5 hrs by Western blot analysis; format: cell-based
[20] = biological target: T1, Mitogen-activated protein kinase; ERK1/ERK2 (Homo sapiens); assay: Effect on ERK1/2 phosphorylation in human A549 cells at 10 to 50 uM after 0.5 to 24 hrs by Western blot analysis; format: cell-based
[21] = biological target: T2, MAP kinase p38 (Homo sapiens); assay: Increase in phosphorylated p38 level in human HT-29 cells after 0.5 to 24 hrs by Western blot analysis; format: cell-based
A549 [22] = assay: Induction of cell cycle arrest in human A549 cells assessed as decrease in cell level at S phase after 24 to 48 hrs by propidium iodide staining-based flow cytometric analysis; format: functional
A549 [23] = assay: Inhibition of DNA synthesis in human A549 cells assessed as BrdU incorporation after 48 hrs by ELISA; format: functional, cell-based
C6 [24] = assay: Induction of cell cycle arrest in rat C6 cells assessed as decrease in cell level at G2M phase after 24 to 48 hrs by propidium iodide staining-based flow cytometric analysis; format: functional
C6 [25] = assay: Antiproliferative activity against rat C6 cells at 25 to 50 uM after 48 hrs by MTT assay in presence of p38 siRNA; format: functional, cell-based
C6 [26] = assay: Increase in phosphorylated p38 level in rat C6 cells at 10 to 50 uM after 24 hrs by Western blot analysis; format: cell-based
HT-29 [27] = assay: Antiproliferative activity against human HT-29 cells after 96 hrs by MTT assay; format: functional, cell-based
HT-29 [28] = assay: Decrease in cyclin D1 expression in human HT-29 cells at 50 uM after 3 to 24 hrs by Western blot analysis; format: functional, cell-based
A549 [29] = assay: Induction of cell cycle arrest in human A549 cells assessed as accumulation at G0/G1 phase after 24 to 48 hrs by propidium iodide staining-based flow cytometric analysis; format: functional
HT-29 [30] = assay: Effect on CREB expression in human HT-29 cells at 10 to 50 uM after 0.5 to 24 hrs by Western blot analysis; format: functional, cell-based
C6 [31] = assay: Effect on c-myc expression in rat C6 cells at 10 to 50 uM after 0.5 to 24 hrs by Western blot analysis; format: functional, cell-based
A549 [32] = assay: Antiproliferative activity against human A549 cells after 96 hrs by MTT assay; format: functional, cell-based
C6 [33] = assay: Inhibition of DNA synthesis in rat C6 cells assessed as BrdU incorporation after 48 hrs by ELISA; format: functional, cell-based
A549 [34] = assay: Effect on CREB expression in human A549 cells at 10 to 50 uM after 0.5 to 24 hrs by Western blot analysis; format: functional, cell-based
[35] = Cytotoxicity against rat OLN93 cells assessed as cell viability at 10 to 100 uM after 24 hrs by LDH assay; format: cell-based
[36] = Cytotoxicity against HSF assessed as cell viability at 10 to 100 uM after 24 hrs by LDH assay; settings: human
HT-29 [37] = assay: Induction of cell cycle arrest in human HT-29 cells assessed as accumulation at G0/G1 phase at 50 uM after 24 to 48 hrs by propidium iodide staining-based flow cytometric analysis; format: functional

T1 sequence (P27361 whole entry, looked up): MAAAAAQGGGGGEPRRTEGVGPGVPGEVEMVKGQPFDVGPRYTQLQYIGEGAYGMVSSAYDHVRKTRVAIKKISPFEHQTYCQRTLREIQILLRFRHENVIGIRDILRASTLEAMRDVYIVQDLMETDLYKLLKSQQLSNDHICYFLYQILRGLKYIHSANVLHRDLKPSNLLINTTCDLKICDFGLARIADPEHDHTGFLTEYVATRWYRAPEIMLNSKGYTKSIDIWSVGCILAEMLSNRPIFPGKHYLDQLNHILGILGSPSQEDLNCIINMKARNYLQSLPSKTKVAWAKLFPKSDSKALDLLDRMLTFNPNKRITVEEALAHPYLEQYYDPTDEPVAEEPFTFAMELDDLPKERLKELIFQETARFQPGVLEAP
T1 sequence (P28482 whole entry, looked up): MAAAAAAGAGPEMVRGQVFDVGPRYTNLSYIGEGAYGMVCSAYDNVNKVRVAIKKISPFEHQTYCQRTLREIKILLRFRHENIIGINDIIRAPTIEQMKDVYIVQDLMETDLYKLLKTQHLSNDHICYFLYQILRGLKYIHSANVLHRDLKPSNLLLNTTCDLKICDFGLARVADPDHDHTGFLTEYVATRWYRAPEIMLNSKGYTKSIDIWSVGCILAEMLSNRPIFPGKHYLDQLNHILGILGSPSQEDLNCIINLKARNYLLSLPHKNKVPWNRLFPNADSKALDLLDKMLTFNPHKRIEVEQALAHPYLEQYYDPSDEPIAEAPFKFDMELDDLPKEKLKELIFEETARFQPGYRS
Mitogen-activated protein kinase 1 and 3 (ERK2 and ERK1) (Rattus norvegicus), sequence (P21708 whole entry, looked up): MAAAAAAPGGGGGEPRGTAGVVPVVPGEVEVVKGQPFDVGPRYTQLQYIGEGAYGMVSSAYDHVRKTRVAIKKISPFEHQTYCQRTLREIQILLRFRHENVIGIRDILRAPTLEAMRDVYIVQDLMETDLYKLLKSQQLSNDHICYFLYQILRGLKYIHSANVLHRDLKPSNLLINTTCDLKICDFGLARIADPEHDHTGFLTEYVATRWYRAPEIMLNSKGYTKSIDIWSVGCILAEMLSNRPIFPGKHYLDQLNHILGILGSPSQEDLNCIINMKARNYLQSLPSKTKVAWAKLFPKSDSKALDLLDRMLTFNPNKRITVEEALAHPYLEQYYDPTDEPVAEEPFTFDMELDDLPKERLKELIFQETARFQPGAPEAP
Mitogen-activated protein kinase 1 and 3 (ERK2 and ERK1) (Rattus norvegicus), sequence (P63086 whole entry, looked up): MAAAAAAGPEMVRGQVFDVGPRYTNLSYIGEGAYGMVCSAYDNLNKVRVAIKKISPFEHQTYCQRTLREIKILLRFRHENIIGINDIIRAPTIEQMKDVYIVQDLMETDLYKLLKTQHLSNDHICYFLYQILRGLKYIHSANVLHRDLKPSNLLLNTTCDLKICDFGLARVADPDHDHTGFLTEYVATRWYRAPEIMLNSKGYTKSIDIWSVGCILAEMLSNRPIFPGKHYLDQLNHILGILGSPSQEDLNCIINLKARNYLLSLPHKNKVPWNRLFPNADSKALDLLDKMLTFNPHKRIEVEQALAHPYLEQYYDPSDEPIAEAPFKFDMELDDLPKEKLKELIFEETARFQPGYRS

## CC(C)(C)c1cc2nc(-c3cc(Cl)c(O)cc3O)sc(=O)c2s1
C6 [1]
  Activity: Active
C6 [2]
  Activity: Dose-dependent effect
C6 [3]
  Activity: Dose-dependent effect
C6 [3]; C6, 96 h
  pIC50: 4.06
[4]
  Activity: inactive
HT-29 [5]
  Activity: Dose-dependent effect
HT-29 [6]
  Activity: Dose-dependent effect
[7]
  Activity: inactive
C6 [8]
  Activity: Dose-dependent effect
[9]
  Activity: Toxic
A549 [10]
  Activity: Dose-dependent effect
C6 [11]
  Activity: inactive
A549 [12]
  Activity: Active
HT-29 [13]
  Activity: inactive
HT-29 [14]
  inhibition: Dose-dependent effect
C6 [15]
  Activity: Dose-dependent effect
[16]
  Activity: inactive
[17]
  Activity: Non-toxic
A549 [18]
  Activity: inactive
[19]
  Activity: Dose-dependent effect
[20]
  Activity: inactive
[21]
  Activity: Dose-dependent effect
A549 [22]
  Activity: Dose-dependent effect
A549 [23]
  inhibition: Dose-dependent effect
C6 [24]
  Activity: Dose-dependent effect
C6 [25]
  Activity: inactive
C6 [26]
  Activity: inactive
HT-29 [27]
  Activity: Dose-dependent effect
HT-29 [27]; HT-29, 96 h
  pIC50: 4.41
HT-29 [28]
  Activity: Active
A549 [29]
  Activity: Dose-dependent effect
HT-29 [30]
  Activity: inactive
C6 [31]
  Activity: inactive
A549 [32]
  Activity: Dose-dependent effect
A549 [32]; A549, 96 h
  pIC50: 4.48
C6 [33]
  inhibition: Dose-dependent effect
A549 [34]
  Activity: inactive
[35]
  Activity: Non-toxic
[36]
  Activity: Non-toxic
HT-29 [37]
  Activity: Dose-dependent effect

— ChEMBL document CHEMBL3774326, “New derivative of 2-(2,4-dihydroxyphenyl)thieno-1,3-thiazin-4-one (BChTT) elicits antiproliferative effect via p38-mediated cell cycle arrest in cancer cells” (Bioorg Med Chem, 2016)
